Assay results taken from article PMC12670405, “Second-Generation AURKA-Targeting PROTACs: Structural Optimization toward in Vivo Degradation in Neuroblastoma” (Journal of Medicinal Chemistry, 2025).

What was measured:
Test in all cases: KINOMEscan scanMAX
Type in all cases: binding
[1] = target: T1, BUB1 (Homo sapiens, UniProt O43683); conditions: read-out: Percent Control
T1 construct: purchased Eurofins Discovery (DiscoverX KINOMEscan scanMAX)
Procedure: (§1) The kinome-wide binding assay was performed by Eurofins Discovery using the scanMAX screening platform. More information can be found on the Eurofins Discovery Web site.

[2] = target: T2, CDK9 (Homo sapiens, UniProt P50750); conditions: read-out: Percent Control
T2 construct: purchased Eurofins Discovery (DiscoverX KINOMEscan scanMAX)
Procedure: as §1

[3] = target: T3, DLK (Homo sapiens, UniProt Q12852); conditions: read-out: Percent Control
T3 construct: purchased Eurofins Discovery (DiscoverX KINOMEscan scanMAX)
Procedure: as §1

[4] = target: T4, EGFR(G719C) (Homo sapiens, UniProt P00533, G719C); conditions: read-out: Percent Control
T4 construct: purchased Eurofins Discovery (DiscoverX KINOMEscan scanMAX)
Procedure: as §1

[5] = target: T5, EPHA6 (Homo sapiens, UniProt Q9UF33); conditions: read-out: Percent Control
T5 construct: purchased Eurofins Discovery (DiscoverX KINOMEscan scanMAX)
Procedure: as §1

[6] = test system: FLT3(ITD,D835V)
Procedure: as §1

[7] = target: T6, FLT3(N841I) (Homo sapiens, UniProt P36888, N841I); conditions: read-out: Percent Control
T6 construct: purchased Eurofins Discovery (DiscoverX KINOMEscan scanMAX)
Procedure: as §1

[8] = target: T7, FYN (Homo sapiens, UniProt P06241); conditions: read-out: Percent Control
T7 construct: purchased Eurofins Discovery (DiscoverX KINOMEscan scanMAX)
Procedure: as §1

[9] = target: T8, IRAK4 (Homo sapiens, UniProt Q9NWZ3); conditions: read-out: Percent Control
T8 construct: purchased Eurofins Discovery (DiscoverX KINOMEscan scanMAX)
T8 sequence (Q9NWZ3 whole entry): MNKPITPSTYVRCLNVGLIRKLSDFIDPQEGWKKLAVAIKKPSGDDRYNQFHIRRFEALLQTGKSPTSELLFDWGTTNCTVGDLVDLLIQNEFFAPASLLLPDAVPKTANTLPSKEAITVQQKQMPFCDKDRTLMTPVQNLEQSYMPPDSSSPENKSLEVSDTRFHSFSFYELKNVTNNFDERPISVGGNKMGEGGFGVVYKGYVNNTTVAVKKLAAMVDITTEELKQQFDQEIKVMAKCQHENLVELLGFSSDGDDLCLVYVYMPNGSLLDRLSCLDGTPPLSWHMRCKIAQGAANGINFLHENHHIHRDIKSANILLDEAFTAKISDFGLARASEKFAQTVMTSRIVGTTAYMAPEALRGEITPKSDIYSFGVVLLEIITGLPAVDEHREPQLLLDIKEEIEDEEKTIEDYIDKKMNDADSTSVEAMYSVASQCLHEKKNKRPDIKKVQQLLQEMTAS
Procedure: as §1

[10] = target: T9, JNK1 (Homo sapiens, UniProt P45983); conditions: read-out: Percent Control
T9 construct: purchased Eurofins Discovery (DiscoverX KINOMEscan scanMAX)
Procedure: as §1

[11] = target: T10, MAP3K3 (Homo sapiens, UniProt Q99759); conditions: read-out: Percent Control
T10 construct: purchased Eurofins Discovery (DiscoverX KINOMEscan scanMAX)
Procedure: as §1

[12] = target: T11, MARK2 (Homo sapiens, UniProt Q7KZI7); conditions: read-out: Percent Control
T11 construct: purchased Eurofins Discovery (DiscoverX KINOMEscan scanMAX)
Procedure: as §1

[13] = target: T12, MKNK2 (Homo sapiens, UniProt Q9HBH9); conditions: read-out: Percent Control
T12 construct: purchased Eurofins Discovery (DiscoverX KINOMEscan scanMAX)
Procedure: as §1

[14] = target: T13, MLK2 (Homo sapiens, UniProt Q02779); conditions: read-out: Percent Control
T13 construct: purchased Eurofins Discovery (DiscoverX KINOMEscan scanMAX)
Procedure: as §1

[15] = target: T14, MLK3 (Homo sapiens, UniProt Q16584); conditions: read-out: Percent Control
T14 construct: purchased Eurofins Discovery (DiscoverX KINOMEscan scanMAX)
Procedure: as §1

[16] = target: T15, MST2 (Homo sapiens, UniProt Q13188); conditions: read-out: Percent Control
T15 construct: purchased Eurofins Discovery (DiscoverX KINOMEscan scanMAX)
T15 sequence (Q13188 whole entry): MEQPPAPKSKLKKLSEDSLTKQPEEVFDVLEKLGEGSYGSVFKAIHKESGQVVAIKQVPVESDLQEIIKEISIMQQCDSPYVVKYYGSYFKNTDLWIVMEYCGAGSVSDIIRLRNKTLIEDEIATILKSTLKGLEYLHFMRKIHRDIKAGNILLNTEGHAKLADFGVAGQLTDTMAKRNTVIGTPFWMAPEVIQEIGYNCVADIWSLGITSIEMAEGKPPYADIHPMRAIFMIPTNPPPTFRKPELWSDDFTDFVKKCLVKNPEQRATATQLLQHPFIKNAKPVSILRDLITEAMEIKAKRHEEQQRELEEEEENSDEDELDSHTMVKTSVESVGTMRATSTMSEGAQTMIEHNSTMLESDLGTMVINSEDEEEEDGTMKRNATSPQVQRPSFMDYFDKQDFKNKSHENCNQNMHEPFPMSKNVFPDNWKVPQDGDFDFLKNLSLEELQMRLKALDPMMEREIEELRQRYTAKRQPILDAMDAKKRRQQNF
Procedure: as §1

[17] = target: T16, PIK3C2G (Homo sapiens, UniProt O75747); conditions: read-out: Percent Control
T16 construct: purchased Eurofins Discovery (DiscoverX KINOMEscan scanMAX)
Procedure: as §1

[18] = target: T17, PIK3CA(E545A) (Homo sapiens, UniProt P42336, E545A); conditions: read-out: Percent Control
T17 construct: purchased Eurofins Discovery (DiscoverX KINOMEscan scanMAX)
T17 sequence (P42336 whole entry E545A): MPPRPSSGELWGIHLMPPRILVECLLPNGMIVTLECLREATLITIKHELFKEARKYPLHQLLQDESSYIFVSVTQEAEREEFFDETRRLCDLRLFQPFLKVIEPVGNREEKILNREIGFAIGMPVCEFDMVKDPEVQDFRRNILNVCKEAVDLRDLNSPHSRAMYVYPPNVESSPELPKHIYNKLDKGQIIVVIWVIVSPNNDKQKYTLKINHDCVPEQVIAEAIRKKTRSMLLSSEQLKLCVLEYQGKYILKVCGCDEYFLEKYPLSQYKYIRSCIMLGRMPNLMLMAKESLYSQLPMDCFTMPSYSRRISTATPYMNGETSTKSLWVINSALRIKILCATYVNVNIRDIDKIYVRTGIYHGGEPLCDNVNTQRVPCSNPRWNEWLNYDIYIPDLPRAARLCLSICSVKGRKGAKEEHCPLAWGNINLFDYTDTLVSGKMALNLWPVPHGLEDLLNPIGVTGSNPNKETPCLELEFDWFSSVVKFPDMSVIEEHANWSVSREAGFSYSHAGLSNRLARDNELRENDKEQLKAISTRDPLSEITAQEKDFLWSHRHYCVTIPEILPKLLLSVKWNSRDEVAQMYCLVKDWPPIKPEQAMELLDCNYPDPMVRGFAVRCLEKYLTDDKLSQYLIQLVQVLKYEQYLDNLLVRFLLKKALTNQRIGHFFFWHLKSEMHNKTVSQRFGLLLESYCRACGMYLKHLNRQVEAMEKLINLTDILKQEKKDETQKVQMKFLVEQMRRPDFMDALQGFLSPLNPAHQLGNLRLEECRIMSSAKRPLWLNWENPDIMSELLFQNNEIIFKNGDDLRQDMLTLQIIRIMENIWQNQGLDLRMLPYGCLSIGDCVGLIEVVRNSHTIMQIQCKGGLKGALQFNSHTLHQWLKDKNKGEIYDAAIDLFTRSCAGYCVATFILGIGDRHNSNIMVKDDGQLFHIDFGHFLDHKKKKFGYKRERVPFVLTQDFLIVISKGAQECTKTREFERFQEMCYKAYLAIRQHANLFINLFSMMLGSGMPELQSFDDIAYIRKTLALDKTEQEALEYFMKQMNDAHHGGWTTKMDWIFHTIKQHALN
Procedure: as §1

[19] = target: T18, PIK3CA(E545K) (Homo sapiens, UniProt P42336, E545K); conditions: read-out: Percent Control
T18 construct: purchased Eurofins Discovery (DiscoverX KINOMEscan scanMAX)
T18 sequence (P42336 whole entry E545K): as the sequence (P42336 whole entry E545A) above, with A545K counted along it
Procedure: as §1

[20] = target: T19, PIK3CD (Homo sapiens, UniProt O00329); conditions: read-out: Percent Control
T19 construct: purchased Eurofins Discovery (DiscoverX KINOMEscan scanMAX)
Procedure: as §1

[21] = target: T20, PKMYT1 (Homo sapiens, UniProt Q99640); conditions: read-out: Percent Control
T20 construct: purchased Eurofins Discovery (DiscoverX KINOMEscan scanMAX)
Procedure: as §1

[22] = target: T21, PRKD3 (Homo sapiens, UniProt O94806); conditions: read-out: Percent Control
T21 construct: purchased Eurofins Discovery (DiscoverX KINOMEscan scanMAX)
Procedure: as §1

[23] = target: T22, QSK (Homo sapiens, UniProt Q9Y2K2); conditions: read-out: Percent Control
T22 construct: purchased Eurofins Discovery (DiscoverX KINOMEscan scanMAX)
Procedure: as §1

[24] = target: T23, RET(V804M) (Homo sapiens, UniProt P07949, V804M); conditions: read-out: Percent Control
T23 construct: purchased Eurofins Discovery (DiscoverX KINOMEscan scanMAX)
Procedure: as §1

[25] = target: T24, RIPK5 (Homo sapiens, UniProt Q6XUX3); conditions: read-out: Percent Control
T24 construct: purchased Eurofins Discovery (DiscoverX KINOMEscan scanMAX)
T24 sequence (Q6XUX3 whole entry): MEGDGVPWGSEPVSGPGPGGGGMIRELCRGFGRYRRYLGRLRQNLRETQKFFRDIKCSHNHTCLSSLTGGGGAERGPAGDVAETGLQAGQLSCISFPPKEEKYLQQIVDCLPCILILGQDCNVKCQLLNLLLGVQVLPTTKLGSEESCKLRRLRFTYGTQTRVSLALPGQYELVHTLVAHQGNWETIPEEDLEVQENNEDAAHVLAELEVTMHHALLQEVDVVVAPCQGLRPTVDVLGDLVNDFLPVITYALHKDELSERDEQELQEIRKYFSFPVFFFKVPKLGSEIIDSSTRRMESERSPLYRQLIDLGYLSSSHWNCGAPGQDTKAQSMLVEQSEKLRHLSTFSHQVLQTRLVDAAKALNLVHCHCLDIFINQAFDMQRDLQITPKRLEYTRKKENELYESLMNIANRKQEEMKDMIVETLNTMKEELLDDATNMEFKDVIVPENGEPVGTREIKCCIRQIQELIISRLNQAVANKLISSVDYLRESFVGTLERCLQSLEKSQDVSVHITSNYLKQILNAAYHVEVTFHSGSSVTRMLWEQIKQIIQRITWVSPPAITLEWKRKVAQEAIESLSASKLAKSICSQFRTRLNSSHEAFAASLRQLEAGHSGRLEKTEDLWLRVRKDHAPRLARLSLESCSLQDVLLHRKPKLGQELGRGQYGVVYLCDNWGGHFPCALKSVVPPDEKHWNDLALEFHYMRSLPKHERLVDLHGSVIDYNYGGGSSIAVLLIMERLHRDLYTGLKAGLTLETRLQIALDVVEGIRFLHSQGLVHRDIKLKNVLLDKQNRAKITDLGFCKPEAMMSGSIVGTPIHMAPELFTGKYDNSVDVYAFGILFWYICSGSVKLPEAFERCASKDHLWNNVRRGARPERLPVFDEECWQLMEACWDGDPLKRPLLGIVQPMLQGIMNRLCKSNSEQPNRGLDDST
Procedure: as §1

[26] = target: T25, RSK3(Kin.Dom.1-N-terminal) (Homo sapiens, UniProt Q15349); conditions: read-out: Percent Control
T25 construct: RSK3(Kin.Dom.1-N-terminal); purchased Eurofins Discovery (DiscoverX KINOMEscan scanMAX)
Procedure: as §1

[27] = target: T26, RSK4(Kin.Dom.1-N-terminal) (Homo sapiens, UniProt Q9UK32); conditions: read-out: Percent Control
T26 construct: RSK4(Kin.Dom.1-N-terminal); purchased Eurofins Discovery (DiscoverX KINOMEscan scanMAX)
Procedure: as §1

[28] = target: T27, TBK1 (Homo sapiens, UniProt Q9UHD2); conditions: read-out: Percent Control
T27 construct: purchased Eurofins Discovery (DiscoverX KINOMEscan scanMAX)
Procedure: as §1

[29] = target: T28, TEC (Homo sapiens, UniProt P42680); conditions: read-out: Percent Control
T28 construct: purchased Eurofins Discovery (DiscoverX KINOMEscan scanMAX)
T28 sequence (P42680 whole entry): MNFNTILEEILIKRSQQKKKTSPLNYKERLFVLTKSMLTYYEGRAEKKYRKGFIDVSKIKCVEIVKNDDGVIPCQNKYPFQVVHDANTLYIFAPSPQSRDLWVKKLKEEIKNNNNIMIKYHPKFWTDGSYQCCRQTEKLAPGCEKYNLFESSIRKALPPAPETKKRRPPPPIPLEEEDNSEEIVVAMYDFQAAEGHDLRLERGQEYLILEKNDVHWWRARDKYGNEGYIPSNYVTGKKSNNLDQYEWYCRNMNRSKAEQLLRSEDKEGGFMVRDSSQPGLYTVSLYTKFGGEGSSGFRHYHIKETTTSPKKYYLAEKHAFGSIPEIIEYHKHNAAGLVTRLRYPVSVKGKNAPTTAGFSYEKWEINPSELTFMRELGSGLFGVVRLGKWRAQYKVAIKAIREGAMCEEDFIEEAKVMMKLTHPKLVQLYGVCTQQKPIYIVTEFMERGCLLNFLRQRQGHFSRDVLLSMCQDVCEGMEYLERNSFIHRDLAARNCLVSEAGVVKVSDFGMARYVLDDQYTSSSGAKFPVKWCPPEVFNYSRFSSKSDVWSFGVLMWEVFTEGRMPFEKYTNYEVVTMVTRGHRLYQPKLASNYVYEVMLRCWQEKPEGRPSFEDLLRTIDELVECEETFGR
Procedure: as §1

[30] = target: T29, TRKC (Homo sapiens, UniProt Q16288); conditions: read-out: Percent Control
T29 construct: purchased Eurofins Discovery (DiscoverX KINOMEscan scanMAX)
T29 sequence (Q16288 32-839): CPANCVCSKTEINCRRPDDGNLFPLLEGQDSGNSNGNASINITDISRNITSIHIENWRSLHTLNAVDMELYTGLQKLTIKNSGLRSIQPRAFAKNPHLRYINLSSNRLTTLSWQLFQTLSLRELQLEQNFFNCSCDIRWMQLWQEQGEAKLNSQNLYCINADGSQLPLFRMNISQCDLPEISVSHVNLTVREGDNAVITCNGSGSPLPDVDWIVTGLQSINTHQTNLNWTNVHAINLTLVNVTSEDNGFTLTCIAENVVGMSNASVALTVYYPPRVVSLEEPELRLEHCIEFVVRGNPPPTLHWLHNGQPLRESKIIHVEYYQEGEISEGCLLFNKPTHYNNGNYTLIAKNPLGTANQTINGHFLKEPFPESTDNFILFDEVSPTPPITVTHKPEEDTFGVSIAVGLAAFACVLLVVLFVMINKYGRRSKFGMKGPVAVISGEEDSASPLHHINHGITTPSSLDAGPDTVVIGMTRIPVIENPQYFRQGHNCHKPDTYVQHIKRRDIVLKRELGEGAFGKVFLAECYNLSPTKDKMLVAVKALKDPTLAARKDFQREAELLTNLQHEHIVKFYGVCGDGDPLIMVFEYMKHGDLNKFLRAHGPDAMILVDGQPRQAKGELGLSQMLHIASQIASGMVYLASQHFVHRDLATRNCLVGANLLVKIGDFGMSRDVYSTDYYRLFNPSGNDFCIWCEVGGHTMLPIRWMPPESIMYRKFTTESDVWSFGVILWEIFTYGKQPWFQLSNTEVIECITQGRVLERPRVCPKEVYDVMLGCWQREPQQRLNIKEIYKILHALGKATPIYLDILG
Procedure: as §1

[31] = target: T30, WNK3 (Homo sapiens, UniProt Q9BYP7); conditions: read-out: Percent Control
T30 construct: purchased Eurofins Discovery (DiscoverX KINOMEscan scanMAX)
Procedure: as §1

[32] = target: T31, p38-delta (Homo sapiens, UniProt O15264); conditions: read-out: Percent Control
T31 construct: purchased Eurofins Discovery (DiscoverX KINOMEscan scanMAX)
T31 sequence (O15264 whole entry): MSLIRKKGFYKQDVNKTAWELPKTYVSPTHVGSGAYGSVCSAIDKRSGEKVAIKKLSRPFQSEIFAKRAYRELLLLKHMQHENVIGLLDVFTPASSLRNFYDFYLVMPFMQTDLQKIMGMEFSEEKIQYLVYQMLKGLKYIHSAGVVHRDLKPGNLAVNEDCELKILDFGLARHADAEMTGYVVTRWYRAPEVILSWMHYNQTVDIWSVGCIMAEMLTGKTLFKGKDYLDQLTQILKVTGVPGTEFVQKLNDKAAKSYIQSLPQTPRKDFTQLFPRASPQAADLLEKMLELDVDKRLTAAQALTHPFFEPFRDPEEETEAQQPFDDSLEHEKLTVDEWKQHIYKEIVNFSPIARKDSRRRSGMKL
Procedure: as §1

Cc1cc(Nc2ccc(F)c(CC3(C(=O)N4CCC(F)(CN5CCN(c6ccc(N7CCC(=O)NC7=O)cn6)CC5)CC4)CCN(Cc4cccc(Cl)c4F)CC3)n2)n[nH]1 [SK5527]
remaining binding at 0.1 µM ([1]; 100 nM): 100%
remaining binding at 1 µM ([1]; 1000 nM): 100%
remaining binding at 0.1 µM ([2]; 100 nM): 90%
remaining binding at 1 µM ([2]; 1000 nM): 97%
remaining binding at 0.1 µM ([3]; 100 nM): 71%
remaining binding at 1 µM ([3]; 1000 nM): 55%
remaining binding at 0.1 µM ([4]; 100 nM): 87%
remaining binding at 1 µM ([4]; 1000 nM): 94%
remaining binding at 0.1 µM ([5]; 100 nM): 100%
remaining binding at 1 µM ([5]; 1000 nM): 93%
Percent Control ([6]; 100 nM): 79%
Percent Control ([6]; 1000 nM): 59%
remaining binding at 0.1 µM ([7]; 100 nM): 83%
remaining binding at 1 µM ([7]; 1000 nM): 76%
remaining binding at 0.1 µM ([8]; 100 nM): 94%
remaining binding at 1 µM ([8]; 1000 nM): 71%
remaining binding at 0.1 µM ([9]; 100 nM): 87%
remaining binding at 1 µM ([9]; 1000 nM): 70%
remaining binding at 0.1 µM ([10]; 100 nM): 72%
remaining binding at 1 µM ([10]; 1000 nM): 95%
remaining binding at 0.1 µM ([11]; 100 nM): 100%
remaining binding at 1 µM ([11]; 1000 nM): 96%
remaining binding at 0.1 µM ([12]; 100 nM): 91%
remaining binding at 1 µM ([12]; 1000 nM): 62%
remaining binding at 0.1 µM ([13]; 100 nM): 59%
remaining binding at 1 µM ([13]; 1000 nM): 68%
remaining binding at 0.1 µM ([14]; 100 nM): 100%
remaining binding at 1 µM ([14]; 1000 nM): 100%
remaining binding at 0.1 µM ([15]; 100 nM): 85%
remaining binding at 1 µM ([15]; 1000 nM): 100%
remaining binding at 0.1 µM ([16]; 100 nM): 76%
remaining binding at 1 µM ([16]; 1000 nM): 55%
remaining binding at 0.1 µM ([17]; 100 nM): 71%
remaining binding at 1 µM ([17]; 1000 nM): 98%
remaining binding at 0.1 µM ([18]; 100 nM): 72%
remaining binding at 1 µM ([18]; 1000 nM): 100%
remaining binding at 0.1 µM ([19]; 100 nM): 93%
remaining binding at 1 µM ([19]; 1000 nM): 71%
remaining binding at 0.1 µM ([20]; 100 nM): 69%
remaining binding at 1 µM ([20]; 1000 nM): 87%
remaining binding at 0.1 µM ([21]; 100 nM): 81%
remaining binding at 1 µM ([21]; 1000 nM): 58%
remaining binding at 0.1 µM ([22]; 100 nM): 100%
remaining binding at 1 µM ([22]; 1000 nM): 100%
remaining binding at 0.1 µM ([23]; 100 nM): 89%
remaining binding at 1 µM ([23]; 1000 nM): 90%
remaining binding at 0.1 µM ([24]; 100 nM): 85%
remaining binding at 1 µM ([24]; 1000 nM): 65%
remaining binding at 0.1 µM ([25]; 100 nM): 97%
remaining binding at 1 µM ([25]; 1000 nM): 81%
remaining binding at 0.1 µM ([26]; 100 nM): 100%
remaining binding at 1 µM ([26]; 1000 nM): 96%
remaining binding at 0.1 µM ([27]; 100 nM): 93%
remaining binding at 1 µM ([27]; 1000 nM): 79%
remaining binding at 0.1 µM ([28]; 100 nM): 99%
remaining binding at 1 µM ([28]; 1000 nM): 85%
remaining binding at 0.1 µM ([29]; 100 nM): 91%
remaining binding at 1 µM ([29]; 1000 nM): 69%
remaining binding at 0.1 µM ([30]; 100 nM): 97%
remaining binding at 1 µM ([30]; 1000 nM): 76%
remaining binding at 0.1 µM ([31]; 100 nM): 82%
remaining binding at 1 µM ([31]; 1000 nM): 71%
remaining binding at 0.1 µM ([32]; 100 nM): 100%
remaining binding at 1 µM ([32]; 1000 nM): 100%
